{"source": "patent US20220192955A1", "about": "“AZOXYSTROBIN EFFICACY IN SCALP HEALTH” (The Procter & Gamble Company, priority 2020, published 2022)", "key": {"[1]": {"tested_on": "keratin 1, keratin 10", "test": "Scalp tape strip barrier integrity: keratins 1 and 10", "format": "in vivo, human", "protocol": "Subjects are enrolled in a double-blind, randomized study for all test groups and have Baseline and Week 3 measurements of scalp health taken for flaking, itch and scalp health endpoints. Subjects take home a test product(s) and are instructed on use of test products throughout the study. Test products are solubilized in a hydroalcoholic leave-on formulation. Azoxystrobin raw material is sourced from AK Scientific Inc. (Union City, Calif.) as >97% pure. Azoxystrobin scalp treatment is prepared from a slurry of azoxystrobin in ethanol that is formulated to 0.1% (w/v) in a base chassis of 50% ethanol, 0.35% Ultrez 21 (rheology modifier), 0.05% neutrol TE and water (q.s.). […] Biomarkers of scalp health, including biomarkers of inflammation, itch, oxidative stress and barrier integrity are assessed by non-invasive tape strip sampling of the scalp surface to determine therapeutic resolution. All biomarkers are analyzed from D-Squame® scalp tape samples that are collected from the scalp of subjects before and after scalp treatment with either azoxystrobin or vehicle (Baseline, and Week 3 respectively). These are extracted and analyzed according to published methods (International Journal of Dermatology 2011, 50, 102-113, incorporated by reference herein). […] Biochemical markers of skin/scalp barrier integrity are analyzed to evaluate improvements on barrier health. […]"}, "[2]": {"tested_on": "Histamine", "test": "Scalp tape strip histamine (HPLC/MS/MS)", "format": "in vivo, human", "protocol": "Subjects are enrolled in a double-blind, randomized study for all test groups and have Baseline and Week 3 measurements of scalp health taken for flaking, itch and scalp health endpoints. Subjects take home a test product(s) and are instructed on use of test products throughout the study. Test products are solubilized in a hydroalcoholic leave-on formulation. Azoxystrobin raw material is sourced from AK Scientific Inc. (Union City, Calif.) as >97% pure. Azoxystrobin scalp treatment is prepared from a slurry of azoxystrobin in ethanol that is formulated to 0.1% (w/v) in a base chassis of 50% ethanol, 0.35% Ultrez 21 (rheology modifier), 0.05% neutrol TE and water (q.s.). […]\nBiomarkers of scalp health, including biomarkers of inflammation, itch, oxidative stress and barrier integrity are assessed by non-invasive tape strip sampling of the scalp surface to determine therapeutic resolution. All biomarkers are analyzed from D-Squame® scalp tape samples that are collected from the scalp of subjects before and after scalp treatment with either azoxystrobin or vehicle (Baseline, and Week 3 respectively). These are extracted and analyzed according to published methods (International Journal of Dermatology 2011, 50, 102-113, incorporated by reference herein). […]\nHistamine is analyzed by gradient reversed-phase HPLC/MS/MS to evaluate scalp itch. […]"}, "[3]": {"tested_on": "human scalp (dandruff)", "test": "Self-assessment questionnaire for itch perception", "format": "in vivo", "protocol": "Subjects are enrolled in a double-blind, randomized study for all test groups and have Baseline and Week 3 measurements of scalp health taken for flaking, itch and scalp health endpoints. Subjects take home a test product(s) and are instructed on use of test products throughout the study. Test products are solubilized in a hydroalcoholic leave-on formulation. Azoxystrobin raw material is sourced from AK Scientific Inc. (Union City, Calif.) as >97% pure. Azoxystrobin scalp treatment is prepared from a slurry of azoxystrobin in ethanol that is formulated to 0.1% (w/v) in a base chassis of 50% ethanol, 0.35% Ultrez 21 (rheology modifier), 0.05% neutrol TE and water (q.s.). Vehicle scalp treatment is prepared similarly without the addition of azoxystrobin raw material. Subjects apply either azoxystrobin or vehicle scalp treatments daily for 3 weeks. Self-assessment questionnaires for itch perception are administered to each subject at Baseline and Week 3. Itch perception is quantified by each subject as severity of symptoms over the past 24 hours on a 7 point scale: 0=none, 1=slight, 2=slight to moderate, 3=moderate, 4=moderate to severe; 5=severe; 6=very severe."}, "[4]": {"conditions": "cited from earlier work"}, "[5]": {"conditions": "0.1% leave-on daily, Week 3, scalp tape strips"}}, "note": "Marks after values point to notes of the source that are not given here.", "data": [{"smiles": "CO/C=C(/C(=O)OC)c1ccccc1Oc1cc(Oc2ccccc2C#N)ncn1", "note": "[Azoxystrobin]", "values": [{"measurement": "Keratins-1,10 % Change from Baseline", "setting": "[1]; [5]", "value": "+86.0* %"}, {"measurement": "increase in keratins 1 and 10", "setting": "[1]; compared to a placebo control", "value": 86, "unit": "%"}, {"measurement": "Histamine Results % Change from Baseline", "setting": "[2]; [5]", "value": 23.8, "unit": "%"}, {"measurement": "histamine reduction compared to placebo control or baseline values (in words)", "setting": "[2]; 3 weeks of treatment", "value": "does not significantly reduce histamine"}, {"measurement": "Mean Itch Severity at Week 3", "setting": "[3]; 7 point scale 0-6, Common Baseline Severity = 3.1, 0.1% leave-on daily", "value": "1.5*"}, {"measurement": "reduction in itch perception", "setting": "[3]; compared to a placebo control", "value": 48, "unit": "%"}, {"measurement": "solubility in water", "setting": "[4]", "value": "low solubility in water"}]}]}
